Reference: patent publication US20250312499A1, “KISSPEPTIN RECEPTOR (KISS1R) TARGETED THERAPEUTICS AND USES THEREOF” (priority 2024, published 2025)
Numbered stars: 1 amine (or outer) side, 2 acyl side, 3 side chain; on linkers, the order of the positions; unused ones are H or OH. Square brackets hold non-standard residues; d marks the D form. Peptide text beside a SMILES is read from it. * marks the point of attachment. DOTA = O=C(O)CN1CCN(CC(=O)O)CCN(CC(=O)*)CCN(CC(=O)O)CC1; Ala(9-anthryl) = N[C@@H](Cc1c2ccccc2cc2ccccc12)C(=O)O; Gly(N-(3-F-4-Me-benzyl)) = Cc1ccc(CNCC(=O)*)cc1F; Propanoyl(3-(MeO(CH2CH2O)2)) = COCCOCCOCCC(=O)*; Gly(Nα-4-MeO-benzyl) = COc1ccc(CNCC(=O)*)cc1; X4 = O=C(c1ccc(-c2ccccc2OCCCN[*:1])cc1)[*:2]; Api(1-amidino) = N=C(N)N1CCC(N)(C(=O)O)CC1; Hydrocinnamoyl(4-Me) = Cc1ccc(CCC(=O)*)cc1; Bip = N[C@@H](Cc1ccc(-c2ccccc2)cc1)C(=O)O; Phe(4-CN) = N#Cc1ccc(C[C@H](N)C(=O)O)cc1; Phe(3-F) = N[C@@H](Cc1cccc(F)c1)C(=O)O; 2Nal = N[C@@H](Cc1ccc2ccccc2c1)C(=O)O; d2Nal = N[C@H](Cc1ccc2ccccc2c1)C(=O)O; X1 = O=C(CN1CCC(N[*:1])CC1)[*:2]; 4Pal = N[C@@H](Cc1ccncc1)C(=O)O; Api = NC1(C(=O)O)CCNCC1; PEG2 = NCCOCCOCCC(=O)O; AEEA = NCCOCCOCC(=O)O; Ahx = NCCCCCC(=O)O; azaGly = NNC(=O)O

Molecular target: human kisspeptin receptor (Homo sapiens (Human), UniProt Q969F8)
Assay: Human KISS1R binding assay (membrane competition binding)
Conditions: 90 min at room temperature; competition with 0.2 nM [125I]-metastin (45-54); Flp-In T-Rex 293 kisspeptin membranes; metal complexes nonradioactive Ga, In, Lu; read-out: hKiSSR Binding Ki (90 min)
Summary of the method: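 Radioligand competition: 0.2 nM [125I]-metastin (45-54) displaced by test ligand (usually 0–10,000 nM) over 90 min at room temperature, pH 7.4 buffer with 0.1% BSA. Receptor source is crude membrane (5–10 μg) from tetracycline-induced Flp-In T-Rex 293 cells. Bound label filtered and counted; Ki from non-linear regression.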

human kisspeptin receptor, sequence (Q969F8 whole entry): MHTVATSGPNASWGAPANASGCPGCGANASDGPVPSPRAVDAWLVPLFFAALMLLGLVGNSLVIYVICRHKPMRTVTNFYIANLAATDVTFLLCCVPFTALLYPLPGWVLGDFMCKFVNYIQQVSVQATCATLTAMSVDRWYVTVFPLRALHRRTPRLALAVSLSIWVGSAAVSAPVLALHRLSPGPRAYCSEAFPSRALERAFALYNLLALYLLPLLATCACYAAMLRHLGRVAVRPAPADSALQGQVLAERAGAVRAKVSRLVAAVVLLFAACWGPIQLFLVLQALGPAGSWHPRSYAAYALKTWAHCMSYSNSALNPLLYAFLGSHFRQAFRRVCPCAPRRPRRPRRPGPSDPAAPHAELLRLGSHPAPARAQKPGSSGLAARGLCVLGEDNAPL

Structure (SMILES)	Ki [µM]
Cc1ccc(CNCC(=O)N2CCC(NC(=O)[C@H](CC(C)C)NC(=O)NNC(=O)[C@H](Cc3ccccc3)NC(=O)[C@@H](NC(=O)[C@H](CC(N)=O)NC(=O)[C@@H](Cc3ccc4ccccc4c3)NC(=O)CCCCCNC(=O)CN3CCN(CC(=O)O)CCN(CC(=O)O)CCN(CC(=O)O)CC3)[C@@H](C)O)(C(=O)N[C@@H](Cc3ccncc3)C(N)=O)CC2)cc1F [Compound 292] ({DOTA-Ahx}-[d2Nal]NTF[azaGly]L[Api](Gly(N-(3-F-4-Me-benzyl)))[4Pal]-NH2)	< 0.01
Cc1ccc(CNCC(=O)N2CCC(NC(=O)[C@H](CC(C)C)NC(=O)NNC(=O)[C@H](Cc3ccccc3)NC(=O)[C@@H](NC(=O)[C@H](CC(N)=O)NC(=O)[C@@H](Cc3c[nH]c4ccccc34)NC(=O)[C@@H](Cc3ccc(O)cc3)NC(=O)COCCOCCNC(=O)CN3CCN(CC(=O)O)CCN(CC(=O)O)CCN(CC(=O)O)CC3)[C@@H](C)O)(C(=O)N[C@@H](Cc3c[nH]c4ccccc34)C(N)=O)CC2)cc1F [Compound 57] ({DOTA-AEEA}-[dY][dW]NTF[azaGly]L[Api](Gly(N-(3-F-4-Me-benzyl)))W-NH2)	< 0.01
COc1ccc(CNCC(=O)N2CCC(NC(=O)[C@H](CC(C)C)NC(=O)NNC(=O)[C@H](Cc3ccccc3)NC(=O)[C@@H](NC(=O)[C@H](CC(N)=O)NC(=O)CCCCCNC(=O)CN3CCN(CC(=O)O)CCN(CC(=O)O)CCN(CC(=O)O)CC3)[C@@H](C)O)(C(=O)N[C@@H](Cc3ccccc3)C(N)=O)CC2)cc1 [Compound 235] ({DOTA-Ahx}-NTF[azaGly]L[Api](Gly(Nα-4-MeO-benzyl))F-NH2)	< 0.01
Cc1ccc(CNCC(=O)N2CCC(NC(=O)[C@H](CC(C)C)SC(C)(C)CNC(=O)[C@H](Cc3ccccc3)NC(=O)CCCCCNC(=O)CN3CCN(CC(=O)O)CCN(CC(=O)O)CCN(CC(=O)O)CC3)(C(=O)N[C@@H](Cc3c[nH]c4ccccc34)C(N)=O)CC2)cc1F [Compound 138]	0.01 to 0.1
COCCOCCOCCC(=O)N[C@@H](CCCCNC(=O)CN1CCN(CC(=O)O)CCN(CC(=O)O)CCN(CC(=O)O)CC1)C(=O)N[C@@H](CC(N)=O)C(=O)N[C@H](C(=O)N[C@@H](Cc1ccccc1)C(=O)NNC(=O)N[C@@H](CC(C)C)C(=O)NC1(C(=O)N[C@@H](Cc2ccncc2)C(N)=O)CCN(C(=O)CNCc2ccc(C)c(F)c2)CC1)[C@@H](C)O [Compound 255] ({Propanoyl(3-(MeO(CH2CH2O)2))}-K(DOTA)NTF[azaGly]L[Api](Gly(N-(3-F-4-Me-benzyl)))[4Pal]-NH2)	< 0.01
Cc1ccc(CNCC(=O)N2CCC(NC(=O)[C@H](CC(C)C)NC(=O)NNC(=O)[C@H](Cc3ccccc3)NC(=O)CCCCCNC(=O)[C@H](Cc3ccc4ccccc4c3)NC(=O)[C@@H](Cc3ccc(O)cc3)NC(=O)CN3CCN(CC(=O)O)CCN(CC(=O)O)CCN(CC(=O)O)CC3)(C(=O)N[C@@H](Cc3ccncc3)C(N)=O)CC2)cc1F [Compound 286] ({DOTA}-[dY][2Nal][Ahx]F[azaGly]L[Api](Gly(N-(3-F-4-Me-benzyl)))[4Pal]-NH2)	< 0.01
Cc1ccc(CNCC(=O)N2CCC(NC(=O)[C@H](CC(C)C)NC(=O)NNC(=O)[C@H](Cc3ccccc3)NC(=O)CN3CCC(NC(=O)CN4CCN(CC(=O)O)CCN(CC(=O)O)CCN(CC(=O)O)CC4)CC3)(C(=O)N[C@@H](Cc3ccc(C#N)cc3)C(N)=O)CC2)cc1F [Compound 244] ({DOTA}-[X1]F[azaGly]L[Api](Gly(N-(3-F-4-Me-benzyl)))[Phe(4-CN)]-NH2)	< 0.01
CC(C)C[C@H](NC(=O)NNC(=O)[C@H](Cc1ccccc1)NC(=O)[C@@H](NC(=O)[C@H](CC(N)=O)NC(=O)[C@H](Cc1ccc(-c2ccccc2)cc1)NC(=O)[C@@H](Cc1ccc(O)cc1)NC(=O)CCCCCNC(=O)CN1CCN(CC(=O)O)CCN(CC(=O)O)CCN(CC(=O)O)CC1)[C@@H](C)O)C(=O)NC1(C(=O)N[C@@H](Cc2c[nH]c3ccccc23)C(N)=O)CCN(C(=N)N)CC1 [Compound 198] ({DOTA-Ahx}-[dY][Bip]NTF[azaGly]L[Api(1-amidino)]W-NH2)	< 0.01
Cc1ccc(CNCC(=O)N2CCC(NC(=O)[C@H](CC(C)C)NC(=O)NNC(=O)c3ccc(-c4ccccc4OCCCNC(=O)CCCCCNC(=O)CN4CCN(CC(=O)O)CCN(CC(=O)O)CCN(CC(=O)O)CC4)cc3)(C(=O)N[C@@H](Cc3c[nH]c4ccccc34)C(N)=O)CC2)cc1F [Compound 297] ({DOTA-Ahx}-[X4][azaGly]L[Api](Gly(N-(3-F-4-Me-benzyl)))W-NH2)	< 0.01
Cc1ccc(CNCC(=O)N2CCC(NC(=O)[C@H](CC(C)C)NC(=O)NNC(=O)[C@H](Cc3cccc(F)c3)NC(=O)[C@@H](NC(=O)[C@H](CC(N)=O)NC(=O)[C@H](CCC(=O)O)NC(=O)CN3CCN(CC(=O)O)CCN(CC(=O)O)CCN(CC(=O)O)CC3)[C@@H](C)O)(C(=O)N[C@@H](Cc3ccncc3)C(N)=O)CC2)cc1F [Compound 171] ({DOTA}-ENT[Phe(3-F)][azaGly]L[Api](Gly(N-(3-F-4-Me-benzyl)))[4Pal]-NH2)	0.01 to 0.1
Cc1ccc(CNCC(=O)N2CCC(NC(=O)[C@H](CC(C)C)NC(=O)NNC(=O)[C@H](Cc3ccccc3)NC(=O)[C@@H](NC(=O)[C@H](CC(N)=O)NC(=O)[C@@H](Cc3c[nH]c4ccccc34)NC(=O)[C@@H](Cc3c[nH]cn3)NC(=O)[C@@H](Cc3ccc(O)cc3)NC(=O)CCCCCNC(=O)CN3CCN(CC(=O)O)CCN(CC(=O)O)CCN(CC(=O)O)CC3)[C@@H](C)O)(C(=O)N[C@@H](Cc3ccncc3)C(N)=O)CC2)cc1F [Compound 107] ({DOTA-Ahx}-[dY][dH][dW]NTF[azaGly]L[Api](Gly(N-(3-F-4-Me-benzyl)))[4Pal]-NH2)	< 0.01
Cc1ccc(CCC(=O)NCCOCCOCCC(=O)N[C@H](Cc2ccc(O)cc2)C(=O)N[C@@H](CCCCNC(=O)CN2CCN(CC(=O)O)CCN(CC(=O)O)CCN(CC(=O)O)CC2)C(=O)N[C@@H](CC(N)=O)C(=O)N[C@H](C(=O)N[C@@H](Cc2ccccc2)C(=O)NNC(=O)N[C@@H](CC(C)C)C(=O)NC2(C(=O)N[C@@H](Cc3c[nH]c4ccccc34)C(N)=O)CCN(C(=N)N)CC2)[C@@H](C)O)cc1 [Compound 195] ({Hydrocinnamoyl(4-Me)-PEG2}-[dY]K(DOTA)NTF[azaGly]L[Api(1-amidino)]W-NH2)	< 0.01
CC(C)C[C@H](NC(=O)NNC(=O)[C@H](Cc1ccccc1)NC(=O)[C@@H](NC(=O)[C@H](CC(N)=O)NC(=O)[C@H](Cc1c2ccccc2cc2ccccc12)NC(=O)[C@@H](Cc1ccc(O)cc1)NC(=O)CCCCCNC(=O)CN1CCN(CC(=O)O)CCN(CC(=O)O)CCN(CC(=O)O)CC1)[C@@H](C)O)C(=O)NC1(C(=O)N[C@@H](Cc2ccncc2)C(N)=O)CCN(C(=N)N)CC1 [Compound 222] ({DOTA-Ahx}-[dY][Ala(9-anthryl)]NTF[azaGly]L[Api(1-amidino)][4Pal]-NH2)	< 0.01
Cc1ccc(CNCC(=O)N2CCC(NC(=O)[C@H](CC(C)C)NC(=O)NNC(=O)[C@H](Cc3ccccc3)NC(=O)[C@@H](NC(=O)[C@H](CC(N)=O)NC(=O)CN3CCC(NC(=O)CN4CCN(CC(=O)O)CCN(CC(=O)O)CCN(CC(=O)O)CC4)CC3)[C@@H](C)O)(C(=O)N[C@@H](Cc3ccc(O)cc3)C(N)=O)CC2)cc1F [Compound 249] ({DOTA}-[X1]NTF[azaGly]L[Api](Gly(N-(3-F-4-Me-benzyl)))Y-NH2)	< 0.01
Cc1ccc(CNCC(=O)N2CCC(NC(=O)[C@H](CC(C)C)n3cc([C@H](Cc4ccccc4)NC(=O)[C@@H](N)CCCCNC(=O)CN4CCN(CC(=O)O)CCN(CC(=O)O)CCN(CC(=O)O)CC4)nn3)(C(=O)N[C@@H](Cc3c[nH]c4ccccc34)C(N)=O)CC2)cc1F [Compound 204]	> 0.1
